Reference: the supplement of paper PMC10307832

How the values were obtained:
Experiment in all cases: relative viability (nuclei count vs DMSO), 5 days (fraction); higher = more cells survive
NCI-H460 = system: NCI-H460
Method in brief: (§1)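 Relative viability divides the nuclei count in treated wells by that in vehicle wells. Lung cancer cell lines were seeded in 1536-well plates, dosed by pin tool the next day, and fixed and stained after 5 days in one step with final 0.05% Triton X-100, 1% formaldehyde and 1 ug/ml Hoechst. Dosing was a single drug or a fixed anchor-drug dose plus five library-drug doses (not always all listed) in √10 steps, and values are medians of duplicate plates imaged at 4×.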

LK-2 = system: LK-2
Method in brief: as §1

LU99A = system: LU99A
Method in brief: as §1

NCI-H1793 = system: NCI-H1793
Method in brief: as §1

NCI-H2347 = system: NCI-H2347
Method in brief: as §1

COR-L23 = system: COR-L23
Method in brief: as §1

PC-14 = system: PC-14
Method in brief: as §1

A-427 = system: A-427
Method in brief: as §1

SW 900 = system: SW 900
Method in brief: as §1

SW 1573 = system: SW 1573
Method in brief: as §1

LCLC-103H = system: LCLC-103H
Method in brief: as §1

NCI-H596 = system: NCI-H596
Method in brief: as §1

LCLC-97TM1 = system: LCLC-97TM1
Method in brief: as §1

201T = system: 201T
Method in brief: as §1

H3255 = system: H3255
Method in brief: as §1

LC-2-ad = system: LC-2-ad
Method in brief: as §1

NCI-H1650 = system: NCI-H1650
Method in brief: as §1

NCI-H23 = system: NCI-H23
Method in brief: as §1

NCI-H727 = system: NCI-H727
Method in brief: as §1

HCC-44 = system: HCC-44
Method in brief: as §1

NCI-H2228 = system: NCI-H2228
Method in brief: as §1

Compound: COc1cc2nccc(Oc3ccc(NC(=O)Nc4cc(C)on4)c(Cl)c3)c2cc1OC [Tivozanib] + Cc1cc(Nc2cc(N3CCN(C)CC3)nc(Sc3ccc(NC(=O)C4CC4)cc3)n2)n[nH]1 [Tozasertib] (partner 0.1 µM)
- relative viability (NCI-H460; first compound 0.005 µM): 0.394
- relative viability (NCI-H460; first compound 0.01581 µM): 0.394
- relative viability (NCI-H460; first compound 0.05 µM): 0.536
- relative viability (NCI-H460; first compound 0.1581 µM): 0.554
- relative viability (NCI-H460; first compound 0.5 µM): 0.446
- relative viability (LK-2; first compound 0.005 µM): 0.173
- relative viability (LK-2; first compound 0.01581 µM): 0.175
- relative viability (LK-2; first compound 0.05 µM): 0.159
- relative viability (LK-2; first compound 0.1581 µM): 0.172
- relative viability (LK-2; first compound 0.5 µM): 0.177
- relative viability (LU99A; first compound 0.005 µM): 0.299
- relative viability (LU99A; first compound 0.01581 µM): 0.279
- relative viability (LU99A; first compound 0.05 µM): 0.307
- relative viability (LU99A; first compound 0.1581 µM): 0.275
- relative viability (LU99A; first compound 0.5 µM): 0.256
- relative viability (NCI-H1793; first compound 0.005 µM): 0.335
- relative viability (NCI-H1793; first compound 0.01581 µM): 0.45
- relative viability (NCI-H1793; first compound 0.05 µM): 0.392
- relative viability (NCI-H1793; first compound 0.1581 µM): 0.376
- relative viability (NCI-H1793; first compound 0.5 µM): 0.359
- relative viability (NCI-H2347; first compound 0.01581 µM): 0.54
- relative viability (NCI-H2347; first compound 0.05 µM): 0.594
- relative viability (NCI-H2347; first compound 0.5 µM): 0.511
- relative viability (COR-L23; first compound 0.005 µM): 0.172
- relative viability (COR-L23; first compound 0.01581 µM): 0.218
- relative viability (COR-L23; first compound 0.05 µM): 0.363
- relative viability (COR-L23; first compound 0.1581 µM): 0.268
- relative viability (COR-L23; first compound 0.5 µM): 0.228
- relative viability (PC-14; first compound 0.005 µM): 0.566
- relative viability (PC-14; first compound 0.01581 µM): 0.647
- relative viability (PC-14; first compound 0.05 µM): 0.55
- relative viability (PC-14; first compound 0.1581 µM): 0.615
- relative viability (PC-14; first compound 0.5 µM): 0.507
- relative viability (A-427; first compound 0.005 µM): 0.179
- relative viability (A-427; first compound 0.01581 µM): 0.23
- relative viability (A-427; first compound 0.05 µM): 0.251
- relative viability (A-427; first compound 0.1581 µM): 0.281
- relative viability (A-427; first compound 0.5 µM): 0.207
- relative viability (SW 900; first compound 0.005 µM): 0.624
- relative viability (SW 900; first compound 0.01581 µM): 0.626
- relative viability (SW 900; first compound 0.05 µM): 0.606
- relative viability (SW 900; first compound 0.1581 µM): 0.637
- relative viability (SW 900; first compound 0.5 µM): 0.565
- relative viability (SW 1573; first compound 0.005 µM): 0.165
- relative viability (SW 1573; first compound 0.01581 µM): 0.17
- relative viability (SW 1573; first compound 0.05 µM): 0.198
- relative viability (SW 1573; first compound 0.1581 µM): 0.205
- relative viability (SW 1573; first compound 0.5 µM): 0.38
- relative viability (LCLC-103H; first compound 0.005 µM): 0.525
- relative viability (LCLC-103H; first compound 0.01581 µM): 0.503
- relative viability (LCLC-103H; first compound 0.05 µM): 0.449
- relative viability (LCLC-103H; first compound 0.1581 µM): 0.51
- relative viability (LCLC-103H; first compound 0.5 µM): 0.549
- relative viability (NCI-H596; first compound 0.005 µM): 0.873
- relative viability (NCI-H596; first compound 0.01581 µM): 0.888
- relative viability (NCI-H596; first compound 0.05 µM): 0.939
- relative viability (NCI-H596; first compound 0.5 µM): 0.885
- relative viability (LCLC-97TM1; first compound 0.005 µM): 0.236
- relative viability (LCLC-97TM1; first compound 0.01581 µM): 0.168
- relative viability (LCLC-97TM1; first compound 0.05 µM): 0.274
- relative viability (LCLC-97TM1; first compound 0.1581 µM): 0.357
- relative viability (LCLC-97TM1; first compound 0.5 µM): 0.197
- relative viability (201T; first compound 0.005 µM): 0.974
- relative viability (201T; first compound 0.01581 µM): 0.959
- relative viability (201T; first compound 0.05 µM): 0.981
- relative viability (201T; first compound 0.1581 µM): 0.985
- relative viability (201T; first compound 0.5 µM): 0.996
- relative viability (H3255; first compound 0.005 µM): 0.745
- relative viability (H3255; first compound 0.01581 µM): 0.564
- relative viability (H3255; first compound 0.05 µM): 0.626
- relative viability (H3255; first compound 0.1581 µM): 0.804
- relative viability (H3255; first compound 0.5 µM): 0.565
- relative viability (LC-2-ad; first compound 0.005 µM): 0.408
- relative viability (LC-2-ad; first compound 0.01581 µM): 0.486
- relative viability (LC-2-ad; first compound 0.05 µM): 0.484
- relative viability (LC-2-ad; first compound 0.1581 µM): 0.399
- relative viability (LC-2-ad; first compound 0.5 µM): 0.408
- relative viability (NCI-H1650; first compound 0.005 µM): 0.445
- relative viability (NCI-H1650; first compound 0.01581 µM): 0.436
- relative viability (NCI-H1650; first compound 0.05 µM): 0.421
- relative viability (NCI-H1650; first compound 0.1581 µM): 0.349
- relative viability (NCI-H1650; first compound 0.5 µM): 0.422
- relative viability (NCI-H23; first compound 0.005 µM): 0.324
- relative viability (NCI-H23; first compound 0.01581 µM): 0.323
- relative viability (NCI-H23; first compound 0.05 µM): 0.547
- relative viability (NCI-H23; first compound 0.1581 µM): 0.406
- relative viability (NCI-H23; first compound 0.5 µM): 0.427
- relative viability (NCI-H727; first compound 0.005 µM): 0.533
- relative viability (NCI-H727; first compound 0.01581 µM): 0.649
- relative viability (NCI-H727; first compound 0.05 µM): 0.588
- relative viability (NCI-H727; first compound 0.1581 µM): 0.635
- relative viability (NCI-H727; first compound 0.5 µM): 0.886
- relative viability (HCC-44; first compound 0.005 µM): 0.889
- relative viability (HCC-44; first compound 0.01581 µM): 0.9
- relative viability (HCC-44; first compound 0.05 µM): 0.839
- relative viability (HCC-44; first compound 0.1581 µM): 1.04
- relative viability (HCC-44; first compound 0.5 µM): 0.773
- relative viability (NCI-H2228; first compound 0.005 µM): 0.232
- relative viability (NCI-H2228; first compound 0.01581 µM): 0.235
- relative viability (NCI-H2228; first compound 0.05 µM): 0.25
- relative viability (NCI-H2228; first compound 0.1581 µM): 0.26
- relative viability (NCI-H2228; first compound 0.5 µM): 0.274
